target: Carbonic anhydrase 2 (Homo sapiens, UniProt P00918); assay: DRUGMATRIX: Carbonic Anhydrase II enzyme inhibition (substrate: 4-Nitrophenyl acetate (4-NPA)); type: tissue-based, Erythrocyte; conditions: erythrocyte; Not Active = under 50% inhibition at 10 µM

SMILES | IC50
CN(C)C(=O)C(CCN1CCC(O)(c2ccc(Cl)cc2)CC1)(c1ccccc1)c1ccccc1 [LOPERAMIDE] | Not Active
Clc1ccc(COC(Cn2ccnc2)c2ccc(Cl)cc2Cl)c(Cl)c1 (configuration not stated) [MICONAZOLE] | Not Active
Oc1ccc2c3c1O[C@H]1[C@@H](O)CC[C@@]4(O)[C@@H](C2)N(CC2CCC2)CC[C@]314 [NALBUPHINE] | Not Active
C[C@]12C=CC(=O)C=C1CC[C@@H]1[C@@H]2C(=O)C[C@@]2(C)[C@H]1CC[C@]2(O)C(=O)CO [PREDNISONE] | Not Active

target: T1, Alpha-1A adrenergic receptor (Rattus norvegicus, UniProt P43140); assay: DRUGMATRIX: Alpha-1A adrenergic receptor radioligand binding (ligand: prazosin); type: cell membranes, Wistar, Submaxillary gland, Membrane; conditions: Not Active = under 50% inhibition at 10 µM
T1 sequence (P43140 whole entry): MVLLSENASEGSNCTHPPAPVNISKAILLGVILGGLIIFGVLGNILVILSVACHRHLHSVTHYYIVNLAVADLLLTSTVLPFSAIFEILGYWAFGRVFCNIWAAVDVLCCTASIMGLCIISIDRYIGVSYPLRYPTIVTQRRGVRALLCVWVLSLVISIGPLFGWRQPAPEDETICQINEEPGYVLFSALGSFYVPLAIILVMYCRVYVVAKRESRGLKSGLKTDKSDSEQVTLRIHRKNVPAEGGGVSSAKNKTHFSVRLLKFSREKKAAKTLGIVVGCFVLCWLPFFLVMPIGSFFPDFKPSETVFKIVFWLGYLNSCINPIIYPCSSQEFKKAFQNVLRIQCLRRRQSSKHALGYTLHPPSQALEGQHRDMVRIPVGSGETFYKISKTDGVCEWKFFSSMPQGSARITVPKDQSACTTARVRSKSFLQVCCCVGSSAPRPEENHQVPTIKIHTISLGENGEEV

SMILES | IC50
Clc1ccc(COC(Cn2ccnc2)c2ccc(Cl)cc2Cl)c(Cl)c1 (configuration not stated) [MICONAZOLE] | Not Active
Oc1ccc2c3c1O[C@H]1[C@@H](O)CC[C@@]4(O)[C@@H](C2)N(CC2CCC2)CC[C@]314 [NALBUPHINE] | Not Active
C[C@]12C=CC(=O)C=C1CC[C@@H]1[C@@H]2C(=O)C[C@@]2(C)[C@H]1CC[C@]2(O)C(=O)CO [PREDNISONE] | Not Active

same assay, conditions: Not Active = under 50% inhibition at 10 µM; read-out: IC50

SMILES | IC50
CN(C)C(=O)C(CCN1CCC(O)(c2ccc(Cl)cc2)CC1)(c1ccccc1)c1ccccc1 [LOPERAMIDE] | 6.22 µM

same assay, conditions: Not Active = under 50% inhibition at 10 µM; read-out: Ki

SMILES | Ki
CN(C)C(=O)C(CCN1CCC(O)(c2ccc(Cl)cc2)CC1)(c1ccccc1)c1ccccc1 [LOPERAMIDE] | 2.52 µM

target: Histamine H2 receptor (Homo sapiens, UniProt P25021); type: cell membranes, CHO-K1, Membrane; conditions: cho-k1; also: in other assays of this panel Not Active means under 50% inhibition at 10 µM
Sequence (P25021 whole entry): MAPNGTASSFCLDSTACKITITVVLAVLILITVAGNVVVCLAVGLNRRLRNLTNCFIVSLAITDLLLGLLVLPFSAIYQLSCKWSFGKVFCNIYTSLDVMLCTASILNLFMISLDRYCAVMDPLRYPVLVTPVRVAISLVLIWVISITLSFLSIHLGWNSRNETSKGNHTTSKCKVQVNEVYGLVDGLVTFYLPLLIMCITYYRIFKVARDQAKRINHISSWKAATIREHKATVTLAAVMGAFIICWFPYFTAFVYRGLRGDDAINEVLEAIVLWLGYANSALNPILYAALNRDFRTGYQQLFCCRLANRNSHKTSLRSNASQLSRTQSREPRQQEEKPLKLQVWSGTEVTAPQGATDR

SMILES | IC50
Oc1ccc2c3c1O[C@H]1[C@@H](O)CC[C@@]4(O)[C@@H](C2)N(CC2CCC2)CC[C@]314 [NALBUPHINE] | Not Active
C[C@]12C=CC(=O)C=C1CC[C@@H]1[C@@H]2C(=O)C[C@@]2(C)[C@H]1CC[C@]2(O)C(=O)CO [PREDNISONE] | Not Active

same assay, conditions: read-out: IC50

SMILES | IC50
CN(C)C(=O)C(CCN1CCC(O)(c2ccc(Cl)cc2)CC1)(c1ccccc1)c1ccccc1 [LOPERAMIDE] | 3.08 µM
Clc1ccc(COC(Cn2ccnc2)c2ccc(Cl)cc2Cl)c(Cl)c1 (configuration not stated) [MICONAZOLE] | 6.75 µM

same assay, conditions: read-out: Ki

SMILES | Ki
CN(C)C(=O)C(CCN1CCC(O)(c2ccc(Cl)cc2)CC1)(c1ccccc1)c1ccccc1 [LOPERAMIDE] | 3.03 µM
Clc1ccc(COC(Cn2ccnc2)c2ccc(Cl)cc2Cl)c(Cl)c1 (configuration not stated) [MICONAZOLE] | 6.64 µM

target: T2, Calcitonin receptor (Homo sapiens, UniProt P30988); type: cell membranes, Membrane; conditions: t47d; also: in other assays of this panel Not Active means under 50% inhibition at 10 µM
T2 sequence (P30988 whole entry): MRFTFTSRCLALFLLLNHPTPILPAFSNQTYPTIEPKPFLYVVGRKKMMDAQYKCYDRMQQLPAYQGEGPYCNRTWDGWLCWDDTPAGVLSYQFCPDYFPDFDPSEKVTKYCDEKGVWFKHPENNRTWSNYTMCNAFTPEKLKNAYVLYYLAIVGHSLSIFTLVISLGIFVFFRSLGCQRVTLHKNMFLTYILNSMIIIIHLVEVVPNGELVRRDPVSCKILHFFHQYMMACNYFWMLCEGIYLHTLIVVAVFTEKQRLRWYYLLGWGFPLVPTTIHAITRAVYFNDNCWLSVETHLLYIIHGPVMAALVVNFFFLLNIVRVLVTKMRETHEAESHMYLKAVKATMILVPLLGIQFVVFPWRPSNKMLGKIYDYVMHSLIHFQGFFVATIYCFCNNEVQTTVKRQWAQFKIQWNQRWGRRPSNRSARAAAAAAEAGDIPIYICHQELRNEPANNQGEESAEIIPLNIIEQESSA

SMILES | IC50
CN(C)C(=O)C(CCN1CCC(O)(c2ccc(Cl)cc2)CC1)(c1ccccc1)c1ccccc1 [LOPERAMIDE] | Not Active
Clc1ccc(COC(Cn2ccnc2)c2ccc(Cl)cc2Cl)c(Cl)c1 (configuration not stated) [MICONAZOLE] | Not Active
Oc1ccc2c3c1O[C@H]1[C@@H](O)CC[C@@]4(O)[C@@H](C2)N(CC2CCC2)CC[C@]314 [NALBUPHINE] | Not Active
C[C@]12C=CC(=O)C=C1CC[C@@H]1[C@@H]2C(=O)C[C@@]2(C)[C@H]1CC[C@]2(O)C(=O)CO [PREDNISONE] | Not Active

target: T3, Vasoactive intestinal polypeptide receptor 1 (Homo sapiens, UniProt P32241); type: cell membranes, Membrane; conditions: ht-29; also: in other assays of this panel Not Active means under 50% inhibition at 10 µM
T3 sequence (P32241 whole entry): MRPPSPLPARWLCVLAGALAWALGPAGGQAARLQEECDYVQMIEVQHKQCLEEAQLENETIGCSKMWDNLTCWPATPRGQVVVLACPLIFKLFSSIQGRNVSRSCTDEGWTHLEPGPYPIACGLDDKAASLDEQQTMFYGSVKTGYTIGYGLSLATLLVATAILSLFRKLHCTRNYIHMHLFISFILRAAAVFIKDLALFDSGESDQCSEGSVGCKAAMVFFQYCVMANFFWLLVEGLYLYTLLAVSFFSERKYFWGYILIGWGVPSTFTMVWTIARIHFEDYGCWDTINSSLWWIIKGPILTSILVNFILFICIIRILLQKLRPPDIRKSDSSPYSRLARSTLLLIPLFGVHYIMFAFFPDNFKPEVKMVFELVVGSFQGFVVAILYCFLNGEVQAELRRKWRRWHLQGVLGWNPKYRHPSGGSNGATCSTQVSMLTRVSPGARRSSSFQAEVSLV

SMILES | IC50
CN(C)C(=O)C(CCN1CCC(O)(c2ccc(Cl)cc2)CC1)(c1ccccc1)c1ccccc1 [LOPERAMIDE] | Not Active
Clc1ccc(COC(Cn2ccnc2)c2ccc(Cl)cc2Cl)c(Cl)c1 (configuration not stated) [MICONAZOLE] | Not Active
Oc1ccc2c3c1O[C@H]1[C@@H](O)CC[C@@]4(O)[C@@H](C2)N(CC2CCC2)CC[C@]314 [NALBUPHINE] | Not Active
C[C@]12C=CC(=O)C=C1CC[C@@H]1[C@@H]2C(=O)C[C@@]2(C)[C@H]1CC[C@]2(O)C(=O)CO [PREDNISONE] | Not Active

target: T4, Angiotensin-converting enzyme (Oryctolagus cuniculus, UniProt P12822); type: tissue-based, Lung; conditions: not given;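 also: enzymatic inhibition of angiotensin-converting enzyme measured with FAPGG as the substrate; in other assays of this panel Not Active means under 50% inhibition at 10 µM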
T4 sequence (P12822 whole entry): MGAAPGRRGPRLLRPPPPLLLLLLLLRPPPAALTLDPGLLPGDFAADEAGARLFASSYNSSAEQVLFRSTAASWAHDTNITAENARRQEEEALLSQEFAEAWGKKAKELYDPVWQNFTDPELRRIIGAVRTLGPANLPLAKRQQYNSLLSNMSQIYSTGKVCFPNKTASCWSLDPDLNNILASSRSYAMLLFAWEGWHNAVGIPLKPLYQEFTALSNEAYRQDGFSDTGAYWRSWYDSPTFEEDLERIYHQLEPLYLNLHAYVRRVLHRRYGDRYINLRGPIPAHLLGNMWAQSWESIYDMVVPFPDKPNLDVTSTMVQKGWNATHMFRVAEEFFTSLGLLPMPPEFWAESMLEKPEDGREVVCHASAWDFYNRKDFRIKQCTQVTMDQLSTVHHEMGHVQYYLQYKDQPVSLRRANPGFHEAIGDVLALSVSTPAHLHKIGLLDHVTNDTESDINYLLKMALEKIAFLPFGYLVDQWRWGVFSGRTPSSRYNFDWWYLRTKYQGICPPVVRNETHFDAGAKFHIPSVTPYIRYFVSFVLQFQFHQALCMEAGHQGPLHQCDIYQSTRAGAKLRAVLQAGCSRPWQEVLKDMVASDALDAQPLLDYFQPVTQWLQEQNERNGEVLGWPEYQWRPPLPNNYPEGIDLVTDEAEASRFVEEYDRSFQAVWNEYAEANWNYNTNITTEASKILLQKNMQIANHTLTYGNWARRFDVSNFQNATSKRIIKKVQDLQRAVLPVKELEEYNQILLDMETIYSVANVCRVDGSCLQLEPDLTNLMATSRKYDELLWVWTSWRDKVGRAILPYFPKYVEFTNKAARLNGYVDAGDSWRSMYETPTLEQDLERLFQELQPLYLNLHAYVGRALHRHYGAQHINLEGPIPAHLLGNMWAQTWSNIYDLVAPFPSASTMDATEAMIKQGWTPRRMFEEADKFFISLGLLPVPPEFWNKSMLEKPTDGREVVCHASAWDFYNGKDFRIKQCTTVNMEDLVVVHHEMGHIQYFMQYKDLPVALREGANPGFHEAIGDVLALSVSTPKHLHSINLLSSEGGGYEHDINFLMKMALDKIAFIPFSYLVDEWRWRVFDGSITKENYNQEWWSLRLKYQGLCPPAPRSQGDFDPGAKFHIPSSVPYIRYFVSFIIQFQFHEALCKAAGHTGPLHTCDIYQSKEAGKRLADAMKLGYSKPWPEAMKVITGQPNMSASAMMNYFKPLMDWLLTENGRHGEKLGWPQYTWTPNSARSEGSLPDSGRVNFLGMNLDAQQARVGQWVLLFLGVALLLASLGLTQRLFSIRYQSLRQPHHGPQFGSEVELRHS

SMILES | IC50
CN(C)C(=O)C(CCN1CCC(O)(c2ccc(Cl)cc2)CC1)(c1ccccc1)c1ccccc1 [LOPERAMIDE] | Not Active
Clc1ccc(COC(Cn2ccnc2)c2ccc(Cl)cc2Cl)c(Cl)c1 (configuration not stated) [MICONAZOLE] | Not Active
Oc1ccc2c3c1O[C@H]1[C@@H](O)CC[C@@]4(O)[C@@H](C2)N(CC2CCC2)CC[C@]314 [NALBUPHINE] | Not Active
C[C@]12C=CC(=O)C=C1CC[C@@H]1[C@@H]2C(=O)C[C@@]2(C)[C@H]1CC[C@]2(O)C(=O)CO [PREDNISONE] | Not Active
